From paper PMC3914206

Experiments:
Assay type in all cases: binding
Design in all cases: KINOMEscan: ABL1(F317L)-phosphorylated / KINOMEscan: ABL1(H396P)-nonphosphorylated / KINOMEscan: ABL1(H396P)-phosphorylated / KINOMEscan: ABL1(M351T)-phosphorylated / KINOMEscan: ABL1(T315I)-phosphorylated / KINOMEscan: ABL1-nonphosphorylated / KINOMEscan: ABL1-phosphorylated / KINOMEscan: ACVR2A / KINOMEscan: ACVR2B / KINOMEscan: ADCK3 / KINOMEscan: ADCK4 / KINOMEscan: AKT1 / KINOMEscan: AKT3 / KINOMEscan: ALK / KINOMEscan: ARK5 / KINOMEscan: AURKA / KINOMEscan: AURKC / KINOMEscan: BIKE / KINOMEscan: BMPR1A / KINOMEscan: BMPR1B / KINOMEscan: BMX / KINOMEscan: BRK / KINOMEscan: BRSK1 / KINOMEscan: BRSK2 / KINOMEscan: CAMK1 / KINOMEscan: CAMK1D / KINOMEscan: CAMK1G / KINOMEscan: CAMK2A / KINOMEscan: CAMK2B / KINOMEscan: AAK1 / KINOMEscan: CAMK2D / KINOMEscan: CAMK2G / KINOMEscan: ABL1(F317I)-nonphosphorylated / KINOMEscan: ABL1(F317I)-phosphorylated / KINOMEscan: ABL1(F317L)-nonphosphorylated: unit: % Ctrl
panel of 442 kinases [1] = molecular target: T1, panel of 442 kinases (Homo sapiens, UniProt Q9H2K8); details: kinase TAOK3; compound concentration 10 µM
T1 construct: purchased KINOMEscan
T1 sequence (Q9H2K8 1-898): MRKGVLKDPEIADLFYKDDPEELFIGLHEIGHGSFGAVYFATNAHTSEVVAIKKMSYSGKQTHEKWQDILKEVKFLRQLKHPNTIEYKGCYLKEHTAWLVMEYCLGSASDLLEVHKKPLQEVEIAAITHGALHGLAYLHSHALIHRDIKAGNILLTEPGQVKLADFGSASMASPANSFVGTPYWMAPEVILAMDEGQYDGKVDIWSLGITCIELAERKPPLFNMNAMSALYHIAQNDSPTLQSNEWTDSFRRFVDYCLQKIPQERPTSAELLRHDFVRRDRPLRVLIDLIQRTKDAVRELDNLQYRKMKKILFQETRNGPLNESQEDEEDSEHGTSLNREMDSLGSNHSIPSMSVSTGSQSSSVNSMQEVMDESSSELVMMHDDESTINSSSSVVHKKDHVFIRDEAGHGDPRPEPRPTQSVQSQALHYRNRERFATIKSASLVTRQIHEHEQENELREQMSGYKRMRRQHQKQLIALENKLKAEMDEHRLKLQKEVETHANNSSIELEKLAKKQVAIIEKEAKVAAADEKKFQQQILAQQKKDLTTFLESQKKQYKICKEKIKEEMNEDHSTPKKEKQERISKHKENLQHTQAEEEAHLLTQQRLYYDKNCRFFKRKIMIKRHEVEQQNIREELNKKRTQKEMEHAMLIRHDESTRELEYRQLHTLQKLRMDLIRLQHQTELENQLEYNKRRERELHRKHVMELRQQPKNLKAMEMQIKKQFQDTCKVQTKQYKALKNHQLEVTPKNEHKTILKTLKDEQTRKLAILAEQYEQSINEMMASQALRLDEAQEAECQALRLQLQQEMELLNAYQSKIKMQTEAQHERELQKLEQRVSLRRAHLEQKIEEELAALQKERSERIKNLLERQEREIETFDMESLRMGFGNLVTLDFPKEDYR
From the text: (§1) We assessed the selectivity of members of this scaffold using the KINOMEscan methodology across a near comprehensive panel of 442 kinases [[18,27]].

panel of 442 kinases [2] = molecular target: T2, panel of 442 kinases (Homo sapiens, UniProt Q8IU85); details: Compound Concentration 10 µM
T2 construct: purchased KINOMEscan
From the text: as §1

panel of 442 kinases [3] = molecular target: T3, panel of 442 kinases (Homo sapiens, UniProt Q9Y2H9); details: Compound Concentration 10 µM
T3 construct: purchased KINOMEscan
From the text: as §1

T3 sequence (Q9Y2H9 whole entry): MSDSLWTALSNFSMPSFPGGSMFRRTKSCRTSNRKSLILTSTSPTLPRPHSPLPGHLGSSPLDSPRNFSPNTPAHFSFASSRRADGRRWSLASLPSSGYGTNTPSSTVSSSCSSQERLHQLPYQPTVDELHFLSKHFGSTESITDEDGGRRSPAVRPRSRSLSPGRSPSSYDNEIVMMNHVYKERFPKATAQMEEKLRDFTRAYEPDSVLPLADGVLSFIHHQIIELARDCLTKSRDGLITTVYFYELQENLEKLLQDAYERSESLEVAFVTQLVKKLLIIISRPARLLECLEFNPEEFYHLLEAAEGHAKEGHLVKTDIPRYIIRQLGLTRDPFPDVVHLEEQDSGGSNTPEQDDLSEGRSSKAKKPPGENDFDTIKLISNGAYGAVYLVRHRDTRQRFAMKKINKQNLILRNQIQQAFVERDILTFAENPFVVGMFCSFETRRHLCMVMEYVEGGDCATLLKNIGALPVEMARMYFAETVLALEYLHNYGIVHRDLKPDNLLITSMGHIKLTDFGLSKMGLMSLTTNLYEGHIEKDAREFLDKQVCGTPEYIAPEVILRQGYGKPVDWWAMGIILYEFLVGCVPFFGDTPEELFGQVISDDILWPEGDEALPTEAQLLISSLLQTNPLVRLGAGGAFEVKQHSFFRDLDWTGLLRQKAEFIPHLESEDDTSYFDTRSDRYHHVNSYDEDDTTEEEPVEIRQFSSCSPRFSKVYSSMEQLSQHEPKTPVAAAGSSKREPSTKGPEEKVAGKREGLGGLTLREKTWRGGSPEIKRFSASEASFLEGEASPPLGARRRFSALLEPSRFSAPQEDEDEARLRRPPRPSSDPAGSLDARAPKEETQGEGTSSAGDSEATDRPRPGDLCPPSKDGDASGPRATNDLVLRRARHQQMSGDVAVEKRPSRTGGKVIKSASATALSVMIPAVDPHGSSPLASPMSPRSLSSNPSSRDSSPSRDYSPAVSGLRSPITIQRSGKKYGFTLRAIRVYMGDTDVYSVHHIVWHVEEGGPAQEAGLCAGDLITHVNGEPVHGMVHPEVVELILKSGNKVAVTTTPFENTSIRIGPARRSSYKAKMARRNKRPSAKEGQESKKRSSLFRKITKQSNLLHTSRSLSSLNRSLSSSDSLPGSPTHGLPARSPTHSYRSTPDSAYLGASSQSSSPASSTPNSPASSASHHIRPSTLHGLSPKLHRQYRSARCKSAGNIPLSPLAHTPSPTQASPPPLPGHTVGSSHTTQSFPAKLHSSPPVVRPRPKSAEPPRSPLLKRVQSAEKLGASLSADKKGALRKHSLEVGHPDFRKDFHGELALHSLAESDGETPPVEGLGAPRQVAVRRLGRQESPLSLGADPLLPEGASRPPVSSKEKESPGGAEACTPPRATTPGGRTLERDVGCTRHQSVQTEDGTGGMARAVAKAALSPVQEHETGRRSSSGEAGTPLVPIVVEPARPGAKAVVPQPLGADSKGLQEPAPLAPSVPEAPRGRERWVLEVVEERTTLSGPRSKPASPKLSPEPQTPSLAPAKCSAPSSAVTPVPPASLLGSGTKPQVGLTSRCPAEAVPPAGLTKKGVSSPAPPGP
T2 sequence (Q8IU85 whole entry): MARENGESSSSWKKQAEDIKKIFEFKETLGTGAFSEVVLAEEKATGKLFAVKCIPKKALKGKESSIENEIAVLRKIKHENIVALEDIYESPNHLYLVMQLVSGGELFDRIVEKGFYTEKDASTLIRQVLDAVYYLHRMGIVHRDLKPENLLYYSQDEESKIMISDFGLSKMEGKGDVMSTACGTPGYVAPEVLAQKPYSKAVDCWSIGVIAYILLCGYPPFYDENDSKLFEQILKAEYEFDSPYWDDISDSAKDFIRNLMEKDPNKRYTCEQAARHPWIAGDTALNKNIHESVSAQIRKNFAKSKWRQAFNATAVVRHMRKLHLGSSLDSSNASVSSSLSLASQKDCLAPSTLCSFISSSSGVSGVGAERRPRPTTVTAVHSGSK

Q: Which “% Ctrl, TAOK3” value (panel of 442 kinases [1]) does the source give for `COc1cc(C(=O)N2CCC(N3CCN(C)CC3)CC2)ccc1Nc1ncc2c(n1)N(C)c1ccccc1C(=O)N2C` [15 (LRRK2-IN-1)] here?
A: Its value is 24 % Ctrl.

Q: And the “KINOMEscan: CAMK1D” value (panel of 442 kinases [2])?
A: The value was 69.

Q: And the “KINOMEscan: MAST1” value (panel of 442 kinases [3])?
A: Its value is 100.

Q: With `COc1cc(C(=O)N2CCC(N3CCN(C)CC3)CC2)ccc1Nc1ncc2c(n1)N1CCc3cccc(c31)C(=O)N2C` [Compound 24] as the molecule, how does the “% Ctrl, TAOK3” value (panel of 442 kinases [1]) read?
A: Its value is 100 % Ctrl.

Q: What about the “KINOMEscan: MAST1” value (panel of 442 kinases [3]) of the same molecule?
A: The value was 73.

Q: `COc1cc(C(=O)N2CCC(N3CCN(C)CC3)CC2)ccc1Nc1ncc2c(n1)N(C1CCCC1)c1ccccc1C(=O)N2C` [Compound 25, 11-cyclopentyl-2-((2-methoxy-4-(4-(4-methylpiperazin-1-yl)piperidine-1-carbonyl)phenyl)amino)-5-methyl-5H-benzo[e]pyrimido[5,4-b][1,4]diazepin-6(11H)-one] was tested. Which “% Ctrl, TAOK3” value (panel of 442 kinases [1]) did it give?
A: The value was 100 % Ctrl.

Q: What about the “KINOMEscan: CAMK1D” value (panel of 442 kinases [2]) of the same molecule?
A: Its value is 77.

Q: What about the “KINOMEscan: MAST1” value (panel of 442 kinases [3]) of the same molecule?
A: The value was 78.

Q: What does the source list for `CCOc1cc(C(=O)N2CCC(N3CCN(C)CC3)CC2)ccc1Nc1ncc2c(n1)N(C1CCCC1)c1ccccc1C(=O)N2C` [Compound 26]?
A: % Ctrl, TAOK3 (panel of 442 kinases [1]): 82 % Ctrl; KINOMEscan: CAMK1D (panel of 442 kinases [2]): 61; KINOMEscan: MAST1 (panel of 442 kinases [3]): 100
